Entries after “also recorded” stand apart in the source; their conditions may differ.
What was measured:
[1] = test system: norepinephrine; conditions: 3 months, MOXCON Trial; cited from earlier work
[2] = test system: β1-Gly389 transgenic mice (ventricular expression of human β1AR); assay: chronic β-blockade in transgenic mice, Western blots of ventricular signaling and Ca2+-handling proteins; type: in vivo, mouse; conditions: 0.5 mg/ml in drinking water for 6 months; P=0.67
Procedure: (§1) Using the α-myosin heavy chain promoter, transgenic mice with targeted ventricular expression of the human β1AR (Arg389 or Gly389 forms) were utilized to ascertain allele-specific responses to chronic administration of the […] propranolol. […] The generation of these mice and their partial characterization has recently been reported in detail elsewhere (Perez et al, 2003). For the current studies, 3-month-old mice of both genotypes, as well as nontransgenic mice, were treated with propranolol (0.5 mg/ml) in their drinking water, or water without propranolol (control) continuously for 6 months. Hearts were then removed and ventricular protein extracts prepared. These were subjected to Western blotting to ascertain expression of the following proteins using methods previously described (Perez et al., 2003): Gαs, Gαi2, G-protein coupled receptor kinase-2 (GRK2), adenylyl cyclase type 5 (AC5), total phospholamban (T-PLN), phosphorylated phospholamban (P-PLN) and sarcoplasmic endoplasmic reticulum calcium ATPase-2A (SERCA). Treatment effect was assessed by comparing expression of the proteins of untreated and propranolol treated mice, within genotype, by ANOVA. The study was approved by the University of Cincinnati Animal Use and Care Committee.

[3] = test system: β1-Arg389 transgenic mice (ventricular expression of human β1AR); assay: as above; type: in vivo, mouse; conditions: 0.5 mg/ml in drinking water for 6 months; ANOVA P<0.002
Procedure: as §1

[4] = test system: heart failure patients; conditions: cited from earlier work
[5] = test system: failing human right ventricular trabeculae; assay: contractile response of isolated right ventricular trabeculae from failing human hearts; conditions: for maximal isoproterenol-stimulated systolic tension: failing hearts
Procedure: (§2) Nonfailing hearts were obtained from local potential organ donors whose hearts were not transplanted because of physical or ABO blood type incompatibility. Failing hearts were from patients with end-stage heart failure due to ischemic or non-ischemic dilated cardiomyopathies who underwent cardiac transplantation. The demographic characteristics of the hearts are provided in Results. The contractile response of isolated, field stimulated, human trabeculae was assessed as previously described {1755; a-c}. Trabeculae of uniform size (1 to 2×6 to 8 mm) were mounted in 80 ml muscle bath chambers in Tyrode's solution at pH 7.45 bubbled with 95% O2-5% CO2 at 36^0. After equilibration, a tension of 75% of Lmax was applied to each individual trabeculum. Field-stimulation by a 5-ms pulse at 10% above threshold was then applied, and after equilibration full dose-response curves to isoproterenol, bucindolol or xamoterol were performed using the indicated concentrations and application of increasing doses every 5 minutes. In experiments in which forskolin was used to enhance signal transduction {e,f}, 10^−6 M of this adenylyl cyclase activator was applied to the tissue baths 15-20 minutes prior to the performance of dose-response curves, and allowed to achieve stability of tension response. Systolic tension at each dose was calculated as the stimulated tension in mN/mm^2 minus baseline tension. The maximum tension, concentration of isoproterenol that produced 50% of the maximum developed tension (EC50) and curve slope were computed by nonlinear repeated measures analysis of covariance. […] Statistical methods were employed as described in Examples 3 and 4.

[6] = test system: nonfailing human right ventricular trabeculae; assay: contractile response of isolated right ventricular trabeculae from nonfailing human hearts
Procedure: as §2

[7] = U.S. enrolled patients in MERIT-HF

SMILES: COc1nc(C)nc(Cl)c1N=C1NCCN1 [moxonidine]
- relative reduction in norepinephrine [1]: 24%

SMILES: CC(C)NCC(O)COc1cccc2ccccc12 (stereo not drawn) [propranolol]
- treatment effect on expression of cardiac signaling and Ca2+-handling proteins [2]: no effect
- treatment effect on expression of cardiac signaling and Ca2+-handling proteins [3]: overall treatment response

SMILES: COCCc1ccc(OCC(O)CNC(C)C)cc1.COCCc1ccc(OCC(O)CNC(C)C)cc1.O=C(O)CCC(=O)O (stereo not drawn) [metoprolol CR/XL, metoprolol succinate CR/XL]
- Mortality + HF Hospitalization hazard ratio vs placebo ([4]; MERIT-HF US Pts (n = 1071/3991)): ~0.84; 200 Ev
- mortality plus heart failure hospitalization hazard ratio vs placebo ([4]; MERIT-HF entire cohort (UCL 0.80)): 0.69
- mortality increase [4, 7]: 5%
- mortality+HF hospitalization decrease [4, 7]: 16%

SMILES: COc1ccccc1OCCNCC(O)COc1cccc2[nH]c3ccccc3c12 (stereo not drawn) [carvedilol]
- positive inotropic signal compared with bucindolol ([5]; failing heart, forskolin pretreated preparations): more of a positive inotropic signal than bucindolol

SMILES: O=C(NCCNCC(O)COc1ccc(O)cc1)N1CCOCC1 (stereo not drawn) [xamoterol]
- inotropic effect on systolic force (dose-response curve slope) ([5]; β1AR Arg/Arg, forskolin pretreatment): increase in force
- inotropic effect on systolic force (dose-response curve slope) ([5]; β1AR Arg/Arg, forskolin pretreatment, listed as Xamoterol): positive inotropic effect
- inotropic effect on systolic force (dose-response curve slope) ([5]; β1AR Arg/Arg, without forskolin): increase in force; also recorded: positive inotropic effect
- inotropic effect on systolic force (dose-response curve slope) ([5]; β1AR Gly carriers, forskolin pretreatment): increase in force
- inotropic effect on systolic force (dose-response curve slope) ([5]; β1AR Gly carriers, forskolin pretreatment, listed as Xamoterol): positive inotropic effect
- inotropic effect on systolic force (dose-response curve slope) ([5]; β1AR Gly carriers, without forskolin): negative inotropic effect

SMILES: CC(C)NCC(O)c1ccc(O)c(O)c1 (stereo not drawn) [isoproterenol]
- maximal isoproterenol-stimulated systolic tension ([5]; β1-Arg389 homozygotes): 9.4±1.9 mN/mm^2
- maximal isoproterenol-stimulated systolic tension ([5]; β1-Gly389 carriers): 2.4±0.60 mN/mm^2
- maximal isoproterenol-stimulated systolic tension ([6]; β1-Arg389 homozygotes): 13±2.5 mN/mm^2
- maximal isoproterenol-stimulated systolic tension ([6]; β1-Gly389 carriers): 5.2±1.4 mN/mm^2
